# Source: the NIST ThermoML archive (doi:10.1016/j.tca.2006.04.011)
# Numbers after ± are expanded uncertainties.
# Key:
# [1] = DTA
# [2] = Molar enthalpy of transition or fusion; settings: DSC
SMILES,Triple point temperature ([1]; Crystal 1) [K],Triple point temperature ([1]; Crystal 2) [K],Molar enthalpy of transition or fusion ([2]; Crystal 1) [kcal/mol],Molar enthalpy of transition or fusion ([2]; Crystal 2) [kcal/mol],Triple point temperature ([1]; Crystal 3) [K],Molar enthalpy of transition or fusion ([2]; Crystal 3) [kcal/mol]
"Clc1cc(Cl)c2c(Cl)c(Cl)ccc2c1Cl [1,2,4,5,6-pentachloronaphthalene]",412.65 ± 3.2,404.15 ± 3.2,2.01 ± 0.179,3.74 ± 0.191,,
"Clc1cc2c(Cl)ccc(Cl)c2c(Cl)c1Cl [1,2,3,5,8-pentachloronaphthalene]",453.25 ± 3.2,443.35 ± 3.2,2.02 ± 0.179,0.22 ± 0.172,387.75 ± 3.2,3.44 ± 0.189
"Clc1cc2c(Cl)c(Cl)c(Cl)c(Cl)c2c(Cl)c1Cl [naphthalene, 1,2,3,4,5,6,7-heptachloro-]",455.95 ± 3.2,454.45 ± 3.2,2.09 ± 0.179,2.04 ± 0.179,,
"Clc1cc2cc(Cl)c(Cl)c(Cl)c2cc1Cl [naphthalene, 1,2,3,6,7-pentachloro-]",416.55 ± 3.2,,5.48 ± 0.206,,,
"Clc1cc(Cl)c2c(Cl)c(Cl)cc(Cl)c2c1Cl [1,2,4,5,6,8-hexachloronaphthalene]",449.35 ± 3.2,,6.9 ± 0.22,,,
"Clc1cc2c(Cl)cc(Cl)c(Cl)c2cc1Cl [naphthalene, 1,2,4,6,7-pentachloro-]",404.25 ± 3.2,,5.4 ± 0.206,,,
"Clc1cc2ccc(Cl)c(Cl)c2c(Cl)c1Cl [naphthalene, 1,2,3,7,8-pentachloro-]",381.55 ± 3.2,,4.19 ± 0.194,,,
"Clc1cc2ccccc2c(Cl)c1Cl [naphthalene, 1,2,3-trichloro-]",354.65 ± 3.2,,4.41 ± 0.196,,,
"Clc1cc(Cl)c2c(Cl)c(Cl)cc(Cl)c2c1 [1,2,4,6,8-pentachloronaphthalene]",428.95 ± 3.2,,4.72 ± 0.198,,,
"Clc1c(Cl)c(Cl)c2ccccc2c1Cl [naphthalene, 1,2,3,4-tetrachloro-]",470.75 ± 3.2,454.25 ± 3.2,2.76 ± 0.184,0.318 ± 0.172,440.45 ± 3.2,2.52 ± 0.182
"Clc1cc(Cl)c2cc(Cl)c(Cl)c(Cl)c2c1 [1,2,3,5,7-pentachloronaphthalene]",444.85 ± 3.2,,6.15 ± 0.213,,,
"Clc1cc(Cl)c2cc(Cl)cc(Cl)c2c1 [1,3,5,7-tetrachloronaphthalene]",452.95 ± 3.2,,6.49 ± 0.215,,,
"Clc1ccc2ccc(Cl)c(Cl)c2c1Cl [naphthalene, 1,2,7,8-tetrachloro-]",401.25 ± 3.2,,3.49 ± 0.189,,,
